Values quoted from earlier work in PMC5356695, “A phase 1 study of oral ridaforolimus in pediatric patients with advanced solid tumors” (Oncotarget, 2016).

Experiments:
[1] = system: pediatric patients with advanced solid tumors; design: method as in PMID 27185573; settings: dalotuzumab alone; cited from earlier work
[2] = system: in vivo solid tumor models; design: method as in PMID 17635004; settings: cited from earlier work
[3] = system: children with refractory solid tumors; design: method as in PMID 17947729; settings: cited from earlier work
[4] = system: neuroblastoma and high-grade glioma; design: method as in PMID 22033322; settings: single-agent therapy; cited from earlier work
[5] = system: children with recurrent or refractory solid tumors; design: method as in PMID 21690471; settings: highest dose tested 150 mg/m^2, once weekly; cited from earlier work

In the case of “dalotuzumab: anti-IGF1R monoclonal antibody”, the “Patients with confirmed partial response” value [1] is given as 1 of 20.
For `CO[C@H]1C[C@@H]2CC[C@@H](C)[C@@](O)(O2)C(=O)C(=O)N2CCCC[C@H]2C(=O)O[C@H]([C@H](C)C[C@@H]2CC[C@@H](O)[C@H](OC)C2)CC(=O)[C@H](C)/C=C(\C)[C@@H](O)[C@@H](OC)C(=O)[C@H](C)C[C@H](C)/C=C/C=C/C=C/1C` [rapamycin], the “Models with significant differences in event-free survival distributions compared with controls” value [2] is given as 27 of 36.
For `CO[C@H]1C[C@@H]2CC[C@@H](C)[C@@](O)(O2)C(=O)C(=O)N2CCCC[C@H]2C(=O)O[C@H]([C@H](C)C[C@@H]2CC[C@@H](OCCO)[C@H](OC)C2)CC(=O)[C@H](C)/C=C(\C)[C@@H](O)[C@@H](OC)C(=O)[C@H](C)C[C@H](C)/C=C/C=C/C=C/1C` [everolimus], the RP2D ([3]; children, oral) is listed as 5 mg/m^2 and the “Patients with DLTs (grade 3 increased ALT, mucositis, diarrhea)” value ([3]; highest dose of 6.5 mg/m^2, oral) is listed as 3 of 3.
For `CO[C@H]1C[C@@H]2CC[C@@H](C)[C@@](O)(O2)C(=O)C(=O)N2CCCC[C@H]2C(=O)O[C@H]([C@H](C)C[C@@H]2CC[C@@H](OC(=O)C(C)(CO)CO)[C@H](OC)C2)CC(=O)[C@H](C)/C=C(\C)[C@@H](O)[C@@H](OC)C(=O)[C@H](C)C[C@H](C)/C=C/C=C/C=C/1C` [temsirolimus], the Disease stabilization [4] is given as “Prolonged stable disease was observed” and the “Patients with DLT (grade 3 anorexia)” value [5] is given as 1 of 7.
